# According to US20090247520A1, “INHIBITORS OF ANTIGEN RECEPTOR-INDUCED NF-kappa B ACTIVATION” (The Burnham Institute for Medical Research, priority 2008, published 2009):
# Where two headings read alike, the source gives them in different places.
# Columns and labels:
# 353 protein kinases = experiment: KINOMEscan kinome screen, panel of 353 protein kinases; type: binding, human; details: 10 μM, of 353 protein kinases surveyed
# Text: (§1) CID-2858522 is not a potent protein kinase inhibitor. Protein kinases play critical roles in NF-κB activation. PKCs are proximal kinases in the NF-κB pathways activated by PMA/Ionomycin and by T- and B-cell antigen receptors, while the IKKs are distal kinases operating in the terminal segments of these and other NF-κB activation pathways. We therefore tested whether CID-2858522 inhibits members of these kinase families by in vitro kinase assays. For these experiments, we tested PKC-beta and PKC-theta (the PKC family members implicated in TCR/BCR signaling), and IKK-beta (a component of the IKK complex) (FIG. 6). […] In addition to assessing these three kinases by conventional in vitro kinase assays, a kinome screen was performed using a high throughput screening method, KINOMEscan™, which is an active-site dependent competition binding assay in which human kinases of interest are fused to a proprietary tag (Ambit). The amount of kinase bound to an immobilized, active-site directed ligand is measured in the presence and absence of the test compound. […] Thus, CID-2858522 inhibits none of the protein kinases previously implicated in regulating NF-κB.
# (§2) In Vitro Kinase Assays. PKC-beta, PKC-theta and IKK-beta in vitro kinase assays were performed using the HTScan Kinase Assay Kit (Cell Signaling, Danvers, Mass.) according to manufacturer's protocols. […]
# TLK1 = target: T1, TLK1 (Homo sapiens, UniProt Q9UKI8); experiment: KINOMEscan competition binding assay, TLK1
# T1 construct: proprietary tag (Ambit); purchased Ambit, Inc
# T1 sequence (Q9UKI8 whole entry): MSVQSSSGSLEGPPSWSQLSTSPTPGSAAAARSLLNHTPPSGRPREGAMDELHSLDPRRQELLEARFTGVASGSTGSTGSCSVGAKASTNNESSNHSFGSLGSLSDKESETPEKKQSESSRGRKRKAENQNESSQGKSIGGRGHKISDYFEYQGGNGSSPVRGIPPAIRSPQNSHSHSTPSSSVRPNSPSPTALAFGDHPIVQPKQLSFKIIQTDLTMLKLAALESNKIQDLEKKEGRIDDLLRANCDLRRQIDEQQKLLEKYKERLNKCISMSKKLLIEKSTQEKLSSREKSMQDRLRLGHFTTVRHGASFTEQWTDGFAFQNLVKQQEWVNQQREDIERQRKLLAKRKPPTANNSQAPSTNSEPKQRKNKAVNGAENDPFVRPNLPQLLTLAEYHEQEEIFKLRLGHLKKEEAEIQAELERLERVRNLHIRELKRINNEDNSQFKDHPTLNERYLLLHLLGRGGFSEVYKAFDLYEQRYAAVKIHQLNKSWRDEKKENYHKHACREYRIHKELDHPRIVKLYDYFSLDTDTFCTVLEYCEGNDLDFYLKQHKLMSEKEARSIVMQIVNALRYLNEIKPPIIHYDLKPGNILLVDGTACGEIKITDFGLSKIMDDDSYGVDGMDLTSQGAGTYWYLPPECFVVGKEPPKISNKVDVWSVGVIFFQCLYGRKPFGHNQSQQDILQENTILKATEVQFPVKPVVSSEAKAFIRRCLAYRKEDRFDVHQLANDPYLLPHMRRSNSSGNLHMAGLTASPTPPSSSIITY
# Text: as §1, §2
# [1] = test system: PMA/Ionomycin-induced NF-κB reporter gene activity; experiment: Transient transfection NF-κB-luciferase reporter assay (episomal plasmid), PMA/Ionomycin; type: cell-based; details: not shown
# Experimental: Dual-luciferase assay for NF-κB activity. Cells seeded in 96 well black plates were co-transfected with Renilla luciferase plasmid and NF-κB-responsive firefly luciferase reporter gene plasmid, with pcDNA3 control or plasmids encoding various desired proteins, using Lipofectamine 2000. The culture medium was aspirated and cells were washed with PBS, prior to adding 50 μL per well of Passive Lysis Buffer (Promega), followed by addition of Dual-luciferase assay reagent (Promega) and measurement of firefly and renilla luciferase activity, using a spectrofluorimeter.
# [2] = test system: PDB-induced IL-8 production; experiment: PDBu-induced IL-8 production by HEK293 cells; type: cell-based; details: Homo sapiens
# Experimental: (A) Structures of two hit compounds, CID-2858522 (left) and CID-2998237 (right) are shown; (B, C) 293-NF-κB-luc cells were pretreated for 2 hrs with various concentration of either CID-2858522 (B) or CID-29982387 (C) and then stimulated with TNF (10 ng/mL) or PMA/lonomycin (10 ng/mL; 5 ng/mL) for 16 h. Luciferase activity was measured and data were expressed as a percentage relative to control treatment with DMSO only (mean±SD; n=3). (D) 293-NF-κB-luc cells were pretreated for 2 h with various concentrations of CID-2858522 or CID-2998237, then stimulated with PMA/lonomycin for 16 h. IL-8 release into the medium was measured, expressing data as a percentage relative to control cultures treated with DMSO (mean±SD; n=3). (E) 293-NF-κB-luc cells were pretreated with CID-2858522 and then stimulated with PDBu for 16 h, IL-8 production and NF-κB luciferase activity were measured as above. (F) 293-NF-κB-luc cells were pretreated for 2 h with various concentrations of CID-2858522 or a PKC inhibitor (Bisindolylmaleimide I) at 1 μM followed by PMA/Ionomycin (10 ng/mL) stimulation for 2 h, then p65-DNA-binding activity was measured in nuclear extracts (10 μg protein), expressing data as fold-increase relative to unstimulated cells (mean±SD; n=3).
# Lymphokine measurements. […]
# JAK2 = target: T2, JAK2 (Homo sapiens, UniProt O60674); experiment: KINOMEscan competition binding assay, JAK2
# T2 construct: proprietary tag (Ambit); purchased Ambit, Inc
# T2 sequence (O60674 whole entry): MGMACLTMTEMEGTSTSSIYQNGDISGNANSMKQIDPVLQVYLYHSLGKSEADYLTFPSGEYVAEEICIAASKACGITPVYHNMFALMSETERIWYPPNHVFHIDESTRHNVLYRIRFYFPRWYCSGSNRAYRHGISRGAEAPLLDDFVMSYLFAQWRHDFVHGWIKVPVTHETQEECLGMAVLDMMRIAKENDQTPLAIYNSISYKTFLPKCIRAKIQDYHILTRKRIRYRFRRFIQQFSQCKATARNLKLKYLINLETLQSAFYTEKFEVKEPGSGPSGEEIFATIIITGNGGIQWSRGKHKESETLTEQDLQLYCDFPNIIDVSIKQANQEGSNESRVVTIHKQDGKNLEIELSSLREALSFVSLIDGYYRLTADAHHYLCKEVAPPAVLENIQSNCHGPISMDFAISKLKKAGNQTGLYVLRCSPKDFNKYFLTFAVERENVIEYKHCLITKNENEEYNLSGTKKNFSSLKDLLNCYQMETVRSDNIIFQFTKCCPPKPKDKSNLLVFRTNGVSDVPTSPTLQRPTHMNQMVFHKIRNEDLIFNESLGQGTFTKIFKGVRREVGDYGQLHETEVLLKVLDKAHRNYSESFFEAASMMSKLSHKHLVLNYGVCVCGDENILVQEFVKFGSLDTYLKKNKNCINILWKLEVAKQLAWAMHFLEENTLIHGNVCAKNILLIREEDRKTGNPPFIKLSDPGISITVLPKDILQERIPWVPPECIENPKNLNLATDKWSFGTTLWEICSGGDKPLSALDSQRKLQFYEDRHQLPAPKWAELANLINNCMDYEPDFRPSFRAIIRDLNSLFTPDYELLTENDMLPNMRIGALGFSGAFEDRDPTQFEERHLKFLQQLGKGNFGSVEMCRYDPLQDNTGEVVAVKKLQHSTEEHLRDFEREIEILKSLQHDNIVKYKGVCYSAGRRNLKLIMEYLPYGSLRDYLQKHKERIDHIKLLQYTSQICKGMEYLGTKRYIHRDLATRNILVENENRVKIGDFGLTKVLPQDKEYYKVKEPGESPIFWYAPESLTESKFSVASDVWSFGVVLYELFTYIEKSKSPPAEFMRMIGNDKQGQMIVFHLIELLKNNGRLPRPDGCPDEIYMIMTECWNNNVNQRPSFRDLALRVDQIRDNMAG
# Text: as §1, §2
compound,measurement,setting,value
"Cc1cc2nc(NCCCO)n(CC(=O)c3cc(C(C)(C)C)c(O)c(C(C)(C)C)c3)c2cc1C [Compound 1, 2-(2-(3-Hydroxypropylamino)-5,6-dimethyl-1H-benzo[d]imidazol-1-yl)-1-(3,5-di-tert-butyl-4-hydroxyphenyl)ethanone]",number of protein kinases suppressed by >50%,353 protein kinases,3
same,inhibition at 10 µM,TLK1,70%
same,inhibition of NF-κB reporter in transient transfection assay,[1],potently inhibited
same,IC50,"[2]; read-out: IC50, PDB-induced IL-8 production",100 nM
same,IC50,"[2]; read-out: IC50, PDBu-induced IL-8 secretion (cellular potency)",< 100 nM
same,inhibition at 10 µM,JAK2,53%
